Patent US20110039873A1, “SUBSTITUTED PYRAZOLO[1,5-a] PYRIDINE COMPOUNDS HAVING MULTI-TARGET ACTIVITY” (priority 2009, published 2011)
Read-outs that look alike come from different tables or passages of the source.

Experiments:
[1] = target: T1, recombinant human phosphodiesterase 10A1 enzyme (Homo sapiens, UniProt Q9Y233); experiment: PDE10 inhibition assay (PDELight); assay type: biochemical; details: for IC50: 1 uM cAMP, read-out: PDE 10 Inhibition (IC50 in μM); for PDE-10 inhibition (in words): Table 2
T1 construct: purchased BPS Biosciences; host or cells: Baculovirus infected Sf9 cells
T1 sequence (Q9Y233 1-779 isoform Q9Y233-1): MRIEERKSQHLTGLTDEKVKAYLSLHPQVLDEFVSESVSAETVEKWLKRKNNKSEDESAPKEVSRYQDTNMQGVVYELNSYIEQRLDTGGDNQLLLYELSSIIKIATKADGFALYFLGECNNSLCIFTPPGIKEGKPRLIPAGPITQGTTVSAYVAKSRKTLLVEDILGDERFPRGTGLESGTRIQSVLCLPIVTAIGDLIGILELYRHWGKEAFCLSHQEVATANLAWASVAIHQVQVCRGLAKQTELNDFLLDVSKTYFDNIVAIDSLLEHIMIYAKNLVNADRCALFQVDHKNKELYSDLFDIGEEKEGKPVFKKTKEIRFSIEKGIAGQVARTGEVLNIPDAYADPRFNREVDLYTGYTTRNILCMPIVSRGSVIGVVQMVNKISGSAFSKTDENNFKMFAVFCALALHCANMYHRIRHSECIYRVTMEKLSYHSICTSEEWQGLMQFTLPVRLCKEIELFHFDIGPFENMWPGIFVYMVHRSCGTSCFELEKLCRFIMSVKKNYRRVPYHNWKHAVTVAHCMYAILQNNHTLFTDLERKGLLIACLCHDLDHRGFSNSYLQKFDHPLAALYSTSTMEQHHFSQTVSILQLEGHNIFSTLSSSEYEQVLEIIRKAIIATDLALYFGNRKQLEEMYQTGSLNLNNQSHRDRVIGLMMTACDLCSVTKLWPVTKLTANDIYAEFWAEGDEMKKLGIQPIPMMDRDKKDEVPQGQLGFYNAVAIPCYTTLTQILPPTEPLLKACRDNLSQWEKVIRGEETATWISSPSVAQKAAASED

[2] = target: T2, recombinant full length human JNK2 enzyme (Homo sapiens, UniProt P45984); experiment: JNK 2 inhibition assay (ATP depletion, luciferase); assay type: biochemical
T2 construct: recombinant full length human JNK2 or JNK3 enzyme; purchased Upstate; host or cells: Sf21 cells
T2 sequence (P45984 whole entry): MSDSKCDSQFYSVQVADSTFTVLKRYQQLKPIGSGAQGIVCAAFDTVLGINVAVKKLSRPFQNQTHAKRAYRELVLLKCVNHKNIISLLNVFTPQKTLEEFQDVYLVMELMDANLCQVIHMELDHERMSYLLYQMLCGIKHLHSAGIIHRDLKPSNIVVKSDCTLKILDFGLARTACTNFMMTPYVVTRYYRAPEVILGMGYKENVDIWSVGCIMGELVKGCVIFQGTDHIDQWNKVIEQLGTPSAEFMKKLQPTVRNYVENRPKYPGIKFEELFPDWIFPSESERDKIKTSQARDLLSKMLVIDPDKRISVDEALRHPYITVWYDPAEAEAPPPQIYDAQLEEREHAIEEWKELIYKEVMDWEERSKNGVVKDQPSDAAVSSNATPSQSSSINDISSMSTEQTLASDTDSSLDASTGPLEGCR
Experimental: In a 96-well plate, recombinant full length human JNK2 or JNK3 enzyme (40 ng) expressed in Sf21 cells (Upstate) was incubated with the substrate ATF2 (3 uM) for 1 hour in the presence of 10 uM ATP. […] IC50 calculations were plotted using a nonlinear regression curve fit.

[3] = test system: phosphorylated c-Jun (serine-73); experiment: Phosphorylated c-JUN (A-beta), SH-SY5Y; assay type: cell-based; details: Homo sapiens, Amyloid Beta peptide 30 uM, 3 hours, read-out: p-cJun Abeta SH-SY5Y (EC50 in μM)
Experimental: In 96-well plates either human SH-SY5Y neuroblastoma cells at 2.5×10^4 cells/well or E18 rat neuronal cells at 1.5×10^4 cells/well were seeded. […] Supernatant was discarded and cells were fixed with 4% paraformaldehyde (100 ul/well) for 20 minutes. FACE cell based ELISA assay (Active Motif) was performed specific for quantifying phosphorlyated c-Jun (serine-73).

[4] = test system: phosphorylated c-Jun (serine-73); experiment: Phosphorylated c-JUN (6-OHDA), SH-SY5Y; assay type: cell-based; details: Homo sapiens, 50 uM 6-hydroxydopamine, 1.5 hours, read-out: p-cJun 6-OHDA SH-SY5Y (EC50 in μM)
Experimental: Human SH-SY5Y neuroblastoma cells were cultured in 96-well plates with 2.5×10^4 cells/well and incubated for 48 hours. 6-hydroxydopamine was added at a concentration of 50 uM in the presence or absence of test compounds (0-30 uM) and incubated for 1.5 hours. Supernatant was discarded and cells were fixed with 4% paraformaldehyde (100 ul/well) for 20 minutes. FACE cell based ELISA assay (Active Motif) was performed specific for quantifying phosphorlyated c-Jun (serine-73).

[5] = target: T3, recombinant full length human JNK3 enzyme (Homo sapiens, UniProt P53779); experiment: JNK 3 inhibition assay (ATP depletion, luciferase); assay type: biochemical; details: for IC50: 10 uM ATP, ATF2 substrate; for JNK-3 inhibition (in words): see Table 2
T3 construct: recombinant full length human JNK2 or JNK3 enzyme; purchased Upstate; host or cells: Sf21 cells
T3 sequence (P53779 whole entry): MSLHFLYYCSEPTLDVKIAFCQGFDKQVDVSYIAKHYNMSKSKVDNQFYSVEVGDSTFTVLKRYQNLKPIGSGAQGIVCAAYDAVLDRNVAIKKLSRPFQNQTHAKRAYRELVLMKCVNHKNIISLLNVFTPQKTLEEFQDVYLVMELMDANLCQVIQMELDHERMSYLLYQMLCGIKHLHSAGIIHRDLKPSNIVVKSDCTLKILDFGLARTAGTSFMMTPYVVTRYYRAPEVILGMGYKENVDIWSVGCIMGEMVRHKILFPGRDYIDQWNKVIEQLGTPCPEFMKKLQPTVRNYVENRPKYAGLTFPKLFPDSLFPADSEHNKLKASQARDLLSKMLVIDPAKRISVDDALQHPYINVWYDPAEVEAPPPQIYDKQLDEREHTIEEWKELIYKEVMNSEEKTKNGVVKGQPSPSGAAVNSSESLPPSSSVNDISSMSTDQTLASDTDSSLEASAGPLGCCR
Experimental: In a 96-well plate, recombinant full length human JNK2 or JNK3 enzyme (40 ng) expressed in Sf21 cells (Upstate) was incubated with the substrate ATF2 (3 uM) for 1 hour in the presence of 10 uM ATP. […] The ATP levels were quantified using luciferase with luminescence read on a Victor Light 1420 luminometer. IC50 calculations were plotted using a nonlinear regression curve fit.

[6] = test system: phosphorylated c-Jun (serine-73); experiment: Phosphorylated c-JUN (A-beta), E18 rat neuronal cells; assay type: cell-based; details: Amyloid Beta peptide 30 uM, 3 hours, read-out: p-cJun Abeta E18 (EC50 in μM)
Experimental: In 96-well plates either human SH-SY5Y neuroblastoma cells at 2.5×10^4 cells/well or E18 rat neuronal cells at 1.5×10^4 cells/well were seeded. To each well the following was added, Amyloid Beta peptide 1-25 (source) at a concentration of 30 uM, retinoic acid (10 uM) and test compounds (0-30 uM) and incubated for 3 hours. Supernatant was discarded and cells were fixed with 4% paraformaldehyde (100 ul/well) for 20 minutes. FACE cell based ELISA assay (Active Motif) was performed specific for quantifying phosphorlyated c-Jun (serine-73).

[7] = test system: Mouse BV-2 microglial cells; experiment: BV-2 glial cell assay (TNF-α and MCP-1 by Luminex); assay type: cell-based; details: for EC50: Mus musculus, BV-2, LPS and IFN-γ activated, 20 hours; for inhibiting glial cell activation (TNF-α and/or MCP-1): Table 3
Experimental: Mouse BV-2 microglial cells were seeded on 96-well plates at a concentration of 3×10^4 cells/well. Cells were activated with 100 ng/mL LPS and IFN-γ (100 ng/mL) in the presence or absence of test compounds (0-30 uM). Following incubation for 20 hours, cells were spun down and supernatant collected. The supernatant was analyzed via Luminex for the presence of TNF-α and MCP-1.

[8] = test system: at least one of JNK 3 or JNK 2 and at least one of PDE 10 or PDE 4; experiment: Dual inhibition (phosphodiesterase and JNK); assay type: biochemical, human; details: IC50 JNK 3 or JNK 2 less than about 5.00 μM and PDE 10 or PDE 4 less than about 20.0 or 30.0 μM
Experimental: In a 96-well plate, recombinant full length human JNK2 or JNK3 enzyme (40 ng) expressed in Sf21 cells (Upstate) was incubated with the substrate ATF2 (3 uM) for 1 hour in the presence of 10 uM ATP. The amount of ATP depletion by the JNK enzyme is measured in the presence or absence of test compounds (0-30 uM). The ATP levels were quantified using luciferase with luminescence read on a Victor Light 1420 luminometer. IC50 calculations were plotted using a nonlinear regression curve fit.
(§1) In a 96-well plate, the catalytic domain of phosphodiesterase 4B enzyme (40 mU/well) cloned from human brain (Scottish Biomedical) was combined with 5 uM cAMP substrate (Sigma). Test compounds (0-30 uM) or vehicle (0.5% DMSO) were added to the enzyme/substrate and incubated 1 hour. Using a PDELight® kit (Cambrex), the amount of AMP produced in the reaction from the hydrolysis of cAMP was quantified using PDELight AMP Detection Reagent which converts the AMP directly to ATP. The assay uses luciferase, which catalyses the formation of light from the newly formed ATP and luciferin. The luminescence was read on a Victor Light 1420 luminometer. IC50 calculations were plotted using a nonlinear regression curve fit.
as §1, with “plate, recombinant human” for “plate, the catalytic domain of”, “phosphodiesterase 10A1” for “phosphodiesterase 4B”, “enzyme (10 U/well) expressed in Baculovirus infected Sf9 cells (BPS Biosciences)” for “enzyme (40 mU/well) cloned from human brain (Scottish Biomedical)”, “with 1” for “with 5”

[9] = test system: rat chronic constriction injury (CCI) model of neuropathic pain; experiment: Rat chronic constriction injury (CCI) model of neuropathic pain; assay type: in vivo
[10] = Oral pharmacokinetic evaluation; assay type: in vivo, rat; details: Sprague-Dawley rats; for AUC(0-t) / Cmax / half-life: male, rat, plasma; for AUC(0-t): read-out: Oral PK AUClast; for Cmax: read-out: Oral PK Cmax; for half-life: Sprague-Dawley, po, 15 mg/kg
Experimental: Three male Sprague-Dawley rats were dosed orally via gavage with 15 mg/kg of test compound. Serial blood samples were collected from the jugular vein at 5, 15, and 30 min, 1, 3, and 6 hours post dosing. Samples were processed for plasma via centrifugation and plasma samples were stored frozen prior to analysis via a sensitive and specific HPLC/MS/MS method. PK parameters were calculated using WinNonLin (Pharsight).

[11] = target: T4, catalytic domain of phosphodiesterase 4B enzyme cloned from human brain (Homo sapiens, UniProt Q07343); experiment: PDE4 inhibition assay (PDELight); assay type: biochemical; details: for IC50: 5 uM cAMP, read-out: PDE 4 Inhibition (IC50 in μM)
T4 construct: the catalytic domain of phosphodiesterase 4B enzyme; purchased Scottish Biomedical
T4 sequence (Q07343 330-659 limits assumed): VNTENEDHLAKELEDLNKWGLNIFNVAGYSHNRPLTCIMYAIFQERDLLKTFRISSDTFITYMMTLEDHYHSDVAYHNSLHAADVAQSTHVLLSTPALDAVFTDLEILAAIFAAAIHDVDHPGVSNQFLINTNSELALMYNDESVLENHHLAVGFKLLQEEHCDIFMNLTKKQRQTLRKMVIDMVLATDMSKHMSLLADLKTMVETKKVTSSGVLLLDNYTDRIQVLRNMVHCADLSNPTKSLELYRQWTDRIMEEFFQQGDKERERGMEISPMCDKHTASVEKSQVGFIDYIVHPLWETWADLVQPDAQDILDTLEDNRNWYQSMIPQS
Summary of the method: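 Human PDE4B catalytic domain (40 mU/well) incubated with 5 uM cAMP. AMP formed was converted to ATP and measured by luciferase luminescence (PDELight). IC50 derived by nonlinear regression curve fit.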

[12] = Water solubility; assay type: physicochemical; details: defined as at least 10 milligrams per milliliter in water at 25° C. and pH 7.0
Experimental: By “water soluble” is meant a compound that is soluble in water to an extent of at least 10 milligrams per milliliter in water at 25° C. and a pH 7.0.

[13] = 10 uM ATP, ATF2 substrate, read-out: JNK 2 Inhibition (IC50 in μM)
[14] = read-out: MCP-1 BV-2 (EC50 in μM)
[15] = read-out: TNF-a BV-2 (EC50 in μM)
[16] = read-out: IC50 value based upon a JNK 2 inhibition assay (range given)
[17] = dose not given, 50% paw withdrawal threshold, von Frey
[18] = 15 mg/kg oral gavage, read-out: Oral PK T½ (converted)

SMILES	IC50 [1]	IC50 [2, 13]	EC50 [3]	EC50 [4]	IC50 [5]	EC50 [6]	EC50 [7, 14]	EC50 [7, 15]	PDE-10 inhibition (in words) [1]	IC50 [2, 16]	dual inhibition (phosphodiesterase and JNK) [8]	IP CCI efficacy (Change in grams) [9, 17]	AUC(0-t) ([10]; 15 mg/kg oral gavage)	Cmax ([10]; 15 mg/kg oral gavage)	PDE-4 inhibition (in words) [11]	IC50 [11]	JNK-3 inhibition (in words) [5]	inhibiting glial cell activation (TNF-α and/or MCP-1) [7]	further results
CC(C)C(=O)c1c(C(C)C)nn2ccccc12 [AV411, 1-(2-isopropylpyrazolo[1,5-a]pyridin-3-yl)-2-methylpropan-1-one, reference compound]	6.3 µM	> 100 µM	3.8 µM	> 30 µM	> 100 µM	> 30 µM	42 µM	2.7 µM	–	–	–	–	–	–	–	–	–	–	–
CCCNc1nccc(-c2c(C(C)C)nn3ccccc23)n1 [AV1153, 4-(2-isopropylpyrazolo[1,5-a]pyridin-3-yl)-N-propylpyrimidin-2-amine]	8.9 µM	–	> 30 µM	> 30 µM	4.1 µM	3.6 µM	–	–	particularly effective	0.01 to 2 µM	effective dual inhibitors	1.85 grams	32 ng·h/mL	13 ng/mL	particularly effective	11.5 µM	–	–	–
CC(C)c1nn2ccccc2c1-c1ccnc(NC2CCCC2)n1 [AV1154, N-cyclopentyl-4-(2-isopropylpyrazolo[1,5-a]pyridin-3-yl)pyrimidin-2-amine]	3 µM	–	> 10 µM	3.4 µM	6 µM	13 µM	–	–	particularly effective	–	effective dual inhibitors	0 grams	–	–	particularly effective	7.1 µM	–	–	–
CCCNc1nccc(-c2cnn3ccccc23)n1 [AV1166, N-propyl-4-(pyrazolo[1,5-a]pyridin-3-yl)pyrimidin-2-amine]	38.2 µM	1.3 µM	11 µM	1.4 µM	0.4 µM	37 µM	1.1 µM	0.9 µM	particularly effective	0.01 to 2 µM	effective dual inhibitors	–	–	–	–	16.5 µM	particularly effective	Particularly effective	–
Cc1cccc2c(-c3ccnc(NC(C)C)n3)cnn12 [AV1183, N-isopropyl-4-(7-methylpyrazolo[1,5-a]pyridin-3-yl)pyrimidin-2-amine]	35 µM	–	5.4 µM	0.3 µM	0.2 µM	–	1.2 µM	1.1 µM	–	–	effective dual inhibitors	0.3 grams	35 ng·h/mL	56 ng/mL	particularly effective	6.2 µM	particularly effective	Particularly effective	half-life [10, 18]: 1.1 h
c1ccn2nc(C3CC3)c(-c3ccnc(NC4CC4)n3)c2c1 [AV1200, N-cyclopropyl-4-(2-cyclopropylpyrazolo[1,5-a]pyridin-3-yl)pyrimidin-2-amine]	7.7 µM	1.6 µM	–	–	1.9 µM	–	0.3 µM	1 µM	particularly effective	0.01 to 2 µM	effective dual inhibitors	–	1700 ng·h/mL	420 ng/mL	particularly effective	2.7 µM	particularly effective	Particularly effective	water soluble [12]: water soluble; IP CCI efficacy (Change in grams) ([9]; 10 mg/kg): 0 (10 mg/kg); grams; IP CCI efficacy (Change in grams) ([9]; 20 mg/kg): 1.8 (20 mg/kg) grams; PO CCI efficacy (Change in grams) ([9]; 30 mg/kg): 0 (30 mg/kg); grams; PO CCI efficacy (Change in grams) ([9]; 60 mg/kg): 1.25 (60 mg/kg) grams; half life following oral dosing (in words) ([10]; oral): particularly prolonged half lives; half-life [10, 18]: 4.7 h; half-life ([10]; oral, read-out: half life following oral dosing): > 3 h
Oc1c2ccccc2c2c3c(cccc13)N=N2 [SP600125, reference compound]	–	–	–	0.6 µM	0.2 µM	7.6 µM	–	–	–	–	–	0.5 grams	–	–	–	–	–	–	–
